From patent US20220151236A1, “NOVEL OXADIAZOLE COMPOUNDS FOR CONTROLLING OR PREVENTING PHYTOPATHOGENIC FUNGI” (PI INDUSTRIES LTD., priority 2019, published 2022) come the findings set out here.

SMILES strings stand for the structures.

This assay deals with Phakopsora pachyrhizi. Kind of assay: Phakopsora pachyrhizi Test on Soybean (preventive activity, greenhouse). The format is in vivo. Conditions: preventive spray on young Soybean plants, inoculated one day after treatment, rated 3, 7, 10 and 15 days after application, read-out: Efficacy (% control), disease severity compared to the untreated check. Here is the method: Compounds were dissolved in 2% dimethyl sulfoxide/acetone and then mixed with water containing an emulsifier to a calibrated spray volume of 50 mL. This 50 mL spray solution was poured into spray bottles for further applications. To test the preventive activity of compounds, healthy young Soybean plants raised in the greenhouse were sprayed with the active compound preparation at the stated application rates inside the spray cabinets using hollow cone nozzles. One day after treatment, the plants were inoculated with a spore suspension containing 2×10^5 Phakopsora pachyrhizi conidia. The inoculated plants were then kept in a greenhouse chamber at 22-24° C. temperature and 80-90% relative humidity for disease expression. A visual assessment of the compound's performance was carried out by rating the disease severity (0-100% scale) on treated plants 3, 7, 10 and 15 days after application. Efficacy (% control) of the compounds was calculated by comparing the disease rating in the treatment with the one of the untreated control. The sprayed plants were also assessed for plant compatibility by recording symptoms like necrosis, chlorosis and stunting.
`COc1cccc(NC(=O)c2cn3ccc(-c4noc(C(F)(F)F)n4)cc3n2)c1` [Compound 1, N-(3-methoxyphenyl)-7-(5-(trifluoromethyl)-1,2,4-oxadiazol-3-yl)imidazo[1,2-a]pyridine-2-carboxamide]: the pest or weed control at 500 ppm is not below 70%.
Turning to `Cc1ccc(NC(=O)c2cn3ccc(-c4noc(C(F)(F)F)n4)cc3n2)cc1` [Compound 3, N-(p-tolyl)-7-(5-(trifluoromethyl)-1,2,4-oxadiazol-3-yl)imidazo[1,2-a]pyridine-2-carboxamide], the pest or weed control at 500 ppm was not below 70%.
Consider `O=C(Nc1cccc(F)c1)c1cn2ccc(-c3noc(C(F)(F)F)n3)cc2n1` [Compound 4, N-(3-fluorophenyl)-7-(5-(trifluoromethyl)-1,2,4-oxadiazol-3-yl)imidazo[1,2-a]pyridine-2-carboxamide], for which the pest or weed control at 500 ppm is not below 70%.
For `O=C(Nc1ccc(F)cc1F)c1cn2ccc(-c3noc(C(F)(F)F)n3)cc2n1` [Compound 5, N-(2,4-difluorophenyl)-7-(5-(trifluoromethyl)-1,2,4-oxadiazol-3-yl)imidazo[1,2-a]pyridine-2-carboxamide] the value was not below 70%.
As to `O=C(Nc1ccc(Cl)cc1)c1cn2ccc(-c3noc(C(F)(F)F)n3)cc2n1` [Compound 6, N-(4-chlorophenyl)-7-(5-(trifluoromethyl)-1,2,4-oxadiazol-3-yl)imidazo[1,2-a]pyridine-2-carboxamide], the pest or weed control at 500 ppm was not below 70%.
For `O=C(Nc1ccccc1F)c1cn2ccc(-c3noc(C(F)(F)F)n3)cc2n1` [Compound 7, N-(2-fluorophenyl)-7-(5-(trifluoromethyl)-1,2,4-oxadiazol-3-yl)imidazo[1,2-a]pyridine-2-carboxamide] the value was not below 70%; for `O=C(NCc1ccc(C(F)(F)F)cc1)c1cn2ccc(-c3noc(C(F)(F)F)n3)cc2n1` [Compound 8, 7-(5-(trifluoromethyl)-1,2,4-oxadiazol-3-yl)-N-(4-(trifluoromethyl)benzyl)imidazo[1,2-a]pyridine-2-carboxamide], not below 70%; for `O=C(Nc1cccnc1)c1cn2ccc(-c3noc(C(F)(F)F)n3)cc2n1` [Compound 9, N-(pyridin-3-yl)-7-(5-(trifluoromethyl)-1,2,4-oxadiazol-3-yl)imidazo[1,2-a]pyridine-2-carboxamide], not below 70%.
As for `O=C(NCc1ccccc1)c1cn2ccc(-c3noc(C(F)(F)F)n3)cc2n1` [Compound 10, N-benzyl-7-(5-(trifluoromethyl)-1,2,4-oxadiazol-3-yl)imidazo[1,2-a]pyridine-2-carboxamide], the pest or weed control at 500 ppm is not below 70%.
As to `O=C(Nc1ccncc1)c1cn2ccc(-c3noc(C(F)(F)F)n3)cc2n1` [Compound 11, N-(pyridin-4-yl)-7-(5-(trifluoromethyl)-1,2,4-oxadiazol-3-yl)imidazo[1,2-a]pyridine-2-carboxamide], the pest or weed control at 500 ppm was not below 70%.
For `CNC(=O)c1cn2ccc(-c3noc(C(F)(F)F)n3)cc2n1` [Compound 13, N-methyl-7-(5-(trifluoromethyl)-1,2,4-oxadiazol-3-yl)imidazo[1,2-a]pyridine-2-carboxamide], the pest or weed control at 500 ppm is not below 70%.
For the compound `CN(CCOc1ccccc1)C(=O)c1cn2ccc(-c3noc(C(F)(F)F)n3)cc2n1` [Compound 14, N-methyl-N-(2-phenoxyethyl)-7-(5-(trifluoromethyl)-1,2,4-oxadiazol-3-yl)imidazo[1,2-a]pyridine-2-carboxamide], the pest or weed control at 500 ppm was not below 70%.
For `N#Cc1ccc(NC(=O)c2cn3ccc(-c4noc(C(F)(F)F)n4)cc3n2)cc1` [Compound 15, N-(4-cyanophenyl)-7-(5-(trifluoromethyl)-1,2,4-oxadiazol-3-yl)imidazo[1,2-a]pyridine-2-carboxamide], the pest or weed control at 500 ppm is not below 70%.
As for `COc1cccc(NC(=O)c2cn3cc(-c4noc(C(F)(F)F)n4)ccc3n2)c1` [Compound 16, N-(3-methoxyphenyl)-6-(5-(trifluoromethyl)-1,2,4-oxadiazol-3-yl)imidazo[1,2-a]pyridine-2-carboxamide], the figure is not below 70%; as for `O=C(Nc1ccc(F)cc1F)c1cn2cc(-c3noc(C(F)(F)F)n3)ccc2n1` [Compound 17, N-(2,4-difluorophenyl)-6-(5-(trifluoromethyl)-1,2,4-oxadiazol-3-yl)imidazo[1,2-a]pyridine-2-carboxamide], not below 70%; as for `O=C(Nc1ccc(Cl)cc1)c1cn2cc(-c3noc(C(F)(F)F)n3)ccc2n1` [Compound 18, N-(4-chlorophenyl)-6-(5-(trifluoromethyl)-1,2,4-oxadiazol-3-yl)imidazo[1,2-a]pyridine-2-carboxamide], not below 70%.
As for `Cc1ccc(NC(=O)c2cn3cc(-c4noc(C(F)(F)F)n4)ccc3n2)cc1` [Compound 19, N-(p-tolyl)-6-(5-(trifluoromethyl)-1,2,4-oxadiazol-3-yl)imidazo[1,2-a]pyridine-2-carboxamide], the figure is not below 70%.
Take `O=C(Nc1ccccc1F)c1cn2cc(-c3noc(C(F)(F)F)n3)ccc2n1` [Compound 20, N-(2-fluorophenyl)-6-(5-(trifluoromethyl)-1,2,4-oxadiazol-3-yl)imidazo[1,2-a]pyridine-2-carboxamide]: the pest or weed control at 500 ppm is not below 70%.
As for `CNC(=O)c1cn2cc(-c3noc(C(F)(F)F)n3)ccc2n1` [Compound 21, N-methyl-6-(5-(trifluoromethyl)-1,2,4-oxadiazol-3-yl)imidazo[1,2-a]pyridine-2-carboxamide], the figure is not below 70%; as for `COc1ccc(NC(=O)c2cn3cc(-c4noc(C(F)(F)F)n4)ccc3n2)cc1` [Compound 22, N-(4-methoxyphenyl)-6-(5-(trifluoromethyl)-1,2,4-oxadiazol-3-yl)imidazo[1,2-a]pyridine-2-carboxamide], not below 70%.
For `O=C(NCc1ccccc1)c1cn2cc(-c3noc(C(F)(F)F)n3)ccc2n1` [Compound 23, N-benzyl-6-(5-(trifluoromethyl)-1,2,4-oxadiazol-3-yl)imidazo[1,2-a]pyridine-2-carboxamide] the value was not below 70%; for `O=C(Nc1cccc(F)c1)c1cn2cc(-c3noc(C(F)(F)F)n3)ccc2n1` [Compound 24, N-(3-fluorophenyl)-6-(5-(trifluoromethyl)-1,2,4-oxadiazol-3-yl)imidazo[1,2-a]pyridine-2-carboxamide], not below 70%; for `CN(C)C(=O)c1cn2cc(-c3noc(C(F)(F)F)n3)ccc2n1` [Compound 25, N,N-dimethyl-6-(5-(trifluoromethyl)-1,2,4-oxadiazol-3-yl)imidazo[1,2-a]pyridine-2-carboxamide], not below 70%.
As to `O=C(Nc1ccc(Cl)cc1F)c1cn2cc(-c3noc(C(F)(F)F)n3)ccc2n1` [Compound 26, N-(4-chloro-2-fluorophenyl)-6-(5-(trifluoromethyl)-1,2,4-oxadiazol-3-yl)imidazo[1,2-a]pyridine-2-carboxamide], the pest or weed control at 500 ppm was not below 70%.
For `N#Cc1ccc(NC(=O)c2cn3cc(-c4noc(C(F)(F)F)n4)ccc3n2)cc1` [Compound 27, N-(4-cyanophenyl)-6-(5-(trifluoromethyl)-1,2,4-oxadiazol-3-yl)imidazo[1,2-a]pyridine-2-carboxamide] the value was not below 70%.
As to `COc1ccccc1NC(=O)c1cn2cc(-c3noc(C(F)(F)F)n3)ccc2n1` [Compound 28, N-(2-methoxyphenyl)-6-(5-(trifluoromethyl)-1,2,4-oxadiazol-3-yl)imidazo[1,2-a]pyridine-2-carboxamide], the pest or weed control at 500 ppm was not below 70%.
Turning to `O=C(Nc1cccnc1)c1cn2cc(-c3noc(C(F)(F)F)n3)ccc2n1` [Compound 29, N-(pyridin-3-yl)-6-(5-(trifluoromethyl)-1,2,4-oxadiazol-3-yl)imidazo[1,2-a]pyridine-2-carboxamide], the pest or weed control at 500 ppm was not below 70%.
As to `O=C(Nc1c(F)cccc1F)c1cn2cc(-c3noc(C(F)(F)F)n3)ccc2n1` [Compound 30, N-(2,6-difluorophenyl)-6-(5-(trifluoromethyl)-1,2,4-oxadiazol-3-yl)imidazo[1,2-a]pyridine-2-carboxamide], the pest or weed control at 500 ppm was not below 70%.
`O=C(NCc1cccc(F)c1)c1cn2cc(-c3noc(C(F)(F)F)n3)ccc2n1` [Compound 31, N-(3-fluorobenzyl)-6-(5-(trifluoromethyl)-1,2,4-oxadiazol-3-yl)imidazo[1,2-a]pyridine-2-carboxamide]: the pest or weed control at 500 ppm was not below 70%.
For `O=C(Nc1ccncc1)c1cn2cc(-c3noc(C(F)(F)F)n3)ccc2n1` [Compound 32, N-(pyridin-4-yl)-6-(5-(trifluoromethyl)-1,2,4-oxadiazol-3-yl)imidazo[1,2-a]pyridine-2-carboxamide] the value was not below 70%; for `COCCNC(=O)c1cn2ccc(-c3noc(C(F)(F)F)n3)cc2n1` [Compound 34, N-(2-methoxyethyl)-7-(5-(trifluoromethyl)-1,2,4-oxadiazol-3-yl)imidazo[1,2-a]pyridine-2-carboxamide], not below 70%; for `CC(C)CNC(=O)c1cn2ccc(-c3noc(C(F)(F)F)n3)cc2n1` [Compound 35, N-isobutyl-7-(5-(trifluoromethyl)-1,2,4-oxadiazol-3-yl)imidazo[1,2-a]pyridine-2-carboxamide], not below 70%.
